One test relates to CRY1. Put plainly: Flag-CRY1 degradation/stability in AMPK+/+ and AMPK-/- mouse embryonic fibroblasts (immunoprecipitation, immunoblot, cycloheximide time course). It counts as cell-based. An excerpt:
(§1) (A) Sequence alignments showing evolutionary conservation of the regions surrounding S71 of mCRY1 in cryptochrome circadian transcriptional repressors (species names in red font) and blue light photoreceptors (species names in blue font). The highlighted numbers above the sequences indicate amino acid preferences at those positions relative to the target serine for phosphorylation by AMP kinase: red indicates a preference for acidic residues (K/R) and green for hydrophobic residues (L/I/V/F). (B) Top: sequence alignment of the phospho-peptides against which antibodies to mCRY1-pS71 and mACC1-pS79 were raised. Bottom: Both anti-mCRY1-pS71 and anti-ACC1-pS79 antibodies recognize WT but not S71A Flag-mCRY1 immunoprecipitated from AD293 cells. (C) anti-mCRY1-p571 was used to detect phosphorylation of Ser71 in Flag-CRY1 immunoprecipitated from AD293 cells transiently expressing wild type CRY1 (WT) or CRY1S71A (S71A) in the absence or presence of activated alleles of AMPKα1 (CAα1) or AMPKα2 (CAα2). Transiently expressed myc-CAα1 and myc-CAα2 were immunostained with polyclonal rabbit antibodies raised against the myc epitope tags and anti-rabbit AF488 (green). Nuclei were counterstained with DAPI (blue). (D) HeLa cells transiently expressing Flag-CRY1 with wild type (WT) or kinase dead (KD) LKB1 were treated with vehicle (−) or 2 mM AICAR (+) for 2 hours. (E) AD293 cells transiently expressing the indicated alleles of Flag-mCRY1 were treated with media containing 25 mM or 0.5 mM glucose. (F) Paired wild type (AMPK+/+) and ampkα1^−/−;ampkα2^−/− (AMPK−/−) mouse embryonic fibroblasts stably expressing Flag-tagged wild type CRY1 (WT) or CRY1S71A/S280A (AA) were treated with vehicle (−) or 2 mM AICAR (+) for 2 hours. (G) MEFs described in (F) were treated with 100 μg/ml cycloheximide (CHX) for the indicated times. CRY1 was detected by immunoprecipitation and immunoblotting for the Flag epitope in (D-G). […]
Background: Immunoblotting shows a protein as a band on a membrane.

In a further test the test system is Bmall-luciferase. Put plainly: Real time bioluminescence monitoring of Bmall-luciferase circadian rhythms. Conditions: high glucose medium supplemented with 2 mM AICAR. Format: cell-based, human. The method, then: (§2) (A) Unsynchronized paired wild type (AMPK^+/+) or ampkα1^−/−; ampkα2^−/− (AMPK−/−) mouse embryonic fibroblasts were stimulated by 2 hour exposure to 50% horse serum followed by transfer to media containing 25 mM glucose, 0.5 mM glucose or 25 mM glucose supplemented with 1 mM AICAR. Quantitative PCR analysis was performed using cDNA samples collected at the indicated times following stimulation. Data represent the mean of two independent experiments, each analyzed in triplicate. (B) Fibroblasts stably expressing Bmall-luciferase were cultured in media containing the indicated amounts of glucose with or without 2 mM AICAR. Typical results of continuous monitoring of luciferase activity are shown. (C and D) Quantitation of the circadian period (C) and amplitude (D) of Bmall-driven luciferase activity from experiments performed as described in (B). Data in (C) and (D) represent the mean±standard deviation for four samples per condition. ANOVA analysis indicated a significant difference between categories. ** P<0.01 vs. samples cultured in 25 mM glucose in Scheffe's post-hoc analysis.
The Bmall promoter is repressed by REVERBa. […]
Real Time Bioluminescence Monitoring—The human osteosarcoma U2OS reporter cell line stably expressing a Bmall promoter driven luciferase has been described. […] Bioluminescence was continuously recorded by a LumiCycle apparatus from Actimetrics, Inc.

Another test has as its system mCRY1. Put plainly: Levels of exogenously expressed Flag-mCRY1 in HeLa cells expressing WT or KD LKB1 (immunoblot). Format: cell-based, mouse. The note with it: HeLa cells with wild type (WT) LKB1; 2 mM AICAR for 2 hours.
Source text: as §1, with “(D) HeLa cells transiently expressing Flag-CRY1 with wild type (WT) or kinase dead (KD) LKB1 were treated with vehicle (−) or 2 mM AICAR (+) for 2 hours. (E) AD293 cells transiently expressing the indicated alleles of Flag-mCRY1 were treated with media containing 25 mM or 0.5 mM glucose. (F) Paired wild type (AMPK+/+) and ampkα1^−/−;ampkα2^−/− (AMPK−/−) mouse embryonic fibroblasts stably expressing Flag-tagged wild type CRY1 (WT) or CRY1S71A/S280A (AA) were treated with vehicle (−) or 2 mM AICAR (+) for 2 hours. (G) MEFs described in (F) were treated with 100 μg/ml cycloheximide (CHX) for the indicated times.” left out

The test system of test [1] is Fas and Por expression in liver. Put plainly: Liver gene expression (quantitative PCR) in wildtype and Cry1-/-;Cry2-/- mice injected with AICAR. It counts as in vivo, mouse. The method, then:
Wildtype (WT) or Cry1^−/−;Cry2^−/− (CRY^−/−) mice were injected with either saline (black bars) or 500 mg AICAR per kg of bodyweight (red bars) at 6:00 pm. cDNA was prepared from livers collected four hours later at 10:00 pm and gene expression was analyzed by quantitative PCR using Sybr GreenER chemistry. […] Data represent the mean±s.e.m. for 3-5 mice per condition.
Gene Expression—RNA was extracted from livers or cultured fibroblasts with Trizol or using the Qiagen RNeasy purification system. cDNA was prepared using the SuperscriptII reverse transcriptase (Invitrogen) and analyzed for gene expression using quantitative real-time PCR with either SYBR green (Invitrogen) or TaqMan (Applied Biosystems) chemistry. Primer sequences are available upon request.
Mice—LKB1^fl/fl mice were a gift from Dr. Ronald De Pinho, Cry1^−/−;Cry2^−/− mice were a gift from Dr. Aziz Sancar. Adenovirus expressing Cre recombinase was from the University of Iowa Transgenic Core facility. All animal care and treatments were in accordance with the Salk Institute guidelines for the care and use of animals.
Furthermore, the effect on metabolic physiology of genetic disruption of both Cry1 and Cry2 in mice is examined.

The test system of test [2] is reverba and dbp expression. Put plainly: Quantitative PCR of circadian transcripts in serum-stimulated mouse embryonic fibroblasts. It counts as cell-based. The note with it: 25 mM glucose supplemented with 1 mM AICAR. The method, then: as §2, with “ANOVA analysis indicated a significant difference between categories. ** P<0.01 vs. samples cultured in 25 mM glucose in Scheffe's post-hoc analysis.” left out
FIG. 10A-D show disruption of AMPK alters circadian rhythms in MEFs. […] Quantitative PCR analysis was performed using cDNA samples prepared from lysates collected at the indicated times following stimulation. Data represent the mean±standard deviation of two or three independent experiments each analyzed in triplicate. […]

In test [3] the test system is AMPK. Put plainly: In vitro phosphorylation assay of purified Flag-mCRY1 by purified AMPK. Conditions: 300 μM AMP; 30 minutes; 32P-ATP. It counts as biochemical. The method, then: Flag-tagged mCRY1 purified from AD293 cells was incubated for 30 minutes with #^32P-ATP in the absence or presence of AMP kinase and 300 μM AMP as indicated. Phosphorylation of mCRY1 was detected by autoradiography; total mCRY1 levels were determined by immunoblot for the Flag epitope.
In vitro Phosphorylation Assay—Flag-mCRY1 was purified from transfected AD293 cells and combined with ^32P-ATP and purified AMPK (from Upstate Biotechnology) in the presence or absence of 300 uM AMP for 30 minutes at room temperature. The reaction mixture was separated by SDS-PAGE and transferred to nitrocellulose. Following radioactive visualization by phosphoimager, the nitrocellulose was immunoblotted for the Flag tag.

The test system of test [4] is AMPK. Conditions: cited from earlier work.
Setting [5] is: WT or Cry1-/-;Cry2-/- mice, 500 mg AICAR per kg of bodyweight, livers collected four hours later.

This is an account of results in patent publication US20120134985A1, “METHODS FOR MODULATING METABOLIC AND CIRCADIAN RHYTHMS” (The Salk Institute for Biological Studies, priority 2009, published 2012).

Structures are written as SMILES.

Take `NC(=O)c1ncn([C@@H]2O[C@H](CO)[C@@H](O)[C@H]2O)c1N` [AICAR, 5-amino-4-imidazolecarboxamide riboside]: in the test on CRY1 (4-hour time course of cycloheximide treatment in the presence of AICAR), the “stability of wild type CRY1” value is “reduced stability”. Further, in the test with CRY1 (AMPK-/- MEFs (absence of functional AMPK), 2 mM AICAR for 2 hours), the “effect on WT or AA CRY1” value was “no effect”. The “degradation of wild type (WT) Flag-CRY1” value with CRY1 (wild type (AMPK+/+) MEFs, 2 mM AICAR for 2 hours) was “acutely degraded”. In addition, the “amplitude of Bmall-luciferase expression” value with Bmall-luciferase is on record as “decreased the amplitude”. Further, the “levels of exogenously expressed mCRY1” value with mCRY1 is reported as “reduction was enhanced”. Besides, in test [1] (setting [5]), the “Fas (fatty acid synthase) expression in liver” value was “activated by AICAR regardless of Cry1 and Cry2 genotype”; the “Por (p450 oxidoreductase) expression in liver” value is given as “AICAR-induced activation requires cryptochromes”. The “gene expression in the livers” value in test [1] (wildtype and cryptochrome-deficient mice injected with AICAR) is given as “cryptochromes are required for AICAR-induced activation of a subset of the genes”. Moreover, the “expression of reverba and dbp” value in test [2] (MEFs lacking AMPK (AMPK-/-)) was “neither glucose deprivation nor AICAR treatment affected”. The “amplitude of circadian reverba and dbp expression” value in test [2] (wild type fibroblasts) was “mimicked the effects of glucose deprivation”.

With `Nc1ncnc2c1ncn2[C@@H]1O[C@H](COP(=O)(O)O)[C@@H](O)[C@H]1O` [AMP], the “phosphorylation of mCRY1 by purified AMPK” value with AMPK [3] was “strongly activated”.

In the case of `NC(=O)c1ncn([C@@H]2O[C@H](COP(=O)(O)O)[C@@H](O)[C@H]2O)c1N` [ZMP, 5-amino-4-imidazolecarboxamide ribotide], in the test with AMPK [4] (AMP analog formed in the cell from AICAR), the AMPK activation entry is listed as “has been shown to activate AMPK”. Besides, the “specificity as AMPK activator” value with AMPK [4] (also acts as an AMP mimic in the regulation of other enzymes) is recorded as “not a specific AMPK activator”.
